How the values were obtained:
Format in all cases: in vivo
[1] = tested on: redroot pigweed (Amaranthus retroflexus, AMARE); experiment: Pre-emerge test, greenhouse herbicide activity screening; settings: rated 14 days after application, 0 = no damage, 100 = complete death
In short: (§1)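 Rating: 0–100 visual injury, 14 DAA. Application: acetone, 187 l/ha, 15–1000 g ai/ha, flat-fan track sprayer with nozzle 40–45 cm above soil or canopy. Post-emerge runs used 0.25% v/v surfactant on 2–3 leaf plants.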

[2] = tested on: barnyardgrass (Echinochloa crus-galli, ECHCG); experiment: as above; settings: rated 14 days after application, 0 = no damage, 100 = complete death
In short: (§2)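 Fourteen days after spraying, crop and weed injury was graded visually from 0, no effect, to 100, every plant dead. Test substances were dissolved in acetone and applied at 15–1000 g ai/ha with a flat-fan nozzle. Application was either pre-emergence, one day after sowing, or post-emergence at the 2–3 leaf stage.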

[3] = tested on: green foxtail (Setaria viridis, SETVI); experiment: as above; settings: rated 14 days after application, 0 = no damage, 100 = complete death
In short: as §2

[4] = tested on: ivyleaf morningglory (Ipomoea hederacea, IPOHE); experiment: as above; settings: rated 14 days after application, 0 = no damage, 100 = complete death
In short: as §2

[5] = tested on: johnsongrass (Sorghum halepense, SORHA); experiment: as above; settings: rated 14 days after application, 0 = no damage, 100 = complete death
In short: as §2

[6] = tested on: lambsquarters (Chenopodium album, CHEAL); experiment: as above; settings: rated 14 days after application, 0 = no damage, 100 = complete death
In short: as §2

[7] = tested on: large crabgrass (Digitaria sanguinalis, DIGSA); experiment: as above; settings: rated 14 days after application, 0 = no damage, 100 = complete death
In short: as §2

[8] = tested on: sicklepod (Cassia obtusifolia, CASOB); experiment: as above; settings: rated 14 days after application, 0 = no damage, 100 = complete death
In short: as §2

[9] = tested on: velvetleaf (Abutilon theophrasti, ABUTH); experiment: as above; settings: rated 14 days after application, 0 = no damage, 100 = complete death
In short: as §2

[10] = tested on: field corn (Zea mays L., var. Dekalb 535, CORN); experiment: Pre-emerge test, crop safety; settings: rated 14 days after application, 0 = no damage, 100 = complete death
In short: (§3)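 Herbicidal damage is scored 0 (none) to 100 (complete plant death) two weeks after a simulated field spray. Rates span 15–1000 g ai/ha, delivered in acetone at 187 l/ha. For post-emergence treatments, plants have 2–3 leaves and the spray carries 0.25% v/v non-ionic surfactant.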

[11] = tested on: upland rice (Oryza sp., var. Tebonnet, RICE); experiment: Pre-emerge test, crop safety; settings: rated 14 days after application, 0 = no damage, 100 = complete death
In short: as §3

[12] = tested on: barnyardgrass (Echinochloa crus-galli, ECHCG); experiment: Post-emerge test, greenhouse herbicide activity screening; settings: post-emerge, 14 days after application, rating scale 0-100
In short: as §1

[13] = tested on: green foxtail (Setaria viridis, SETVI); experiment: as above; settings: post-emerge, 14 days after application, rating scale 0-100
In short: as §1

[14] = tested on: ivyleaf morningglory (Ipomoea hederacea, IPOHE); experiment: as above; settings: post-emerge, 14 days after application, rating scale 0-100
In short: as §1

[15] = tested on: johnsongrass (Sorghum halepense, SORHA); experiment: as above; settings: post-emerge, 14 days after application, rating scale 0-100
In short: as §1

[16] = tested on: lambsquarters (Chenopodium album, CHEAL); experiment: as above; settings: post-emerge, 14 days after application, rating scale 0-100
In short: as §1

[17] = tested on: large crabgrass (Digitaria sanguinalis, DIGSA); experiment: as above; settings: post-emerge, 14 days after application, rating scale 0-100
In short: as §1

[18] = tested on: redroot pigweed (Amaranthus retroflexus, AMARE); experiment: as above; settings: post-emerge, 14 days after application, rating scale 0-100
In short: as §1

[19] = tested on: sicklepod (Cassia obtusifolia, CASOB); experiment: as above; settings: post-emerge, 14 days after application, rating scale 0-100
In short: as §1

[20] = tested on: velvetleaf (Abutilon theophrasti, ABUTH); experiment: as above; settings: post-emerge, 14 days after application, rating scale 0-100
In short: as §1

[21] = tested on: field corn (Zea mays L., var. Dekalb 535, CORN); experiment: Post-emerge test, crop safety; settings: post-emerge, 14 days after application, rating scale 0-100
In short: as §2

[22] = tested on: upland rice (Oryza sp., var. Tebonnet, RICE); experiment: Post-emerge test, crop safety; settings: post-emerge, 14 days after application, rating scale 0-100
In short: as §2

COc1c(Cl)cc(F)c(-n2c(=O)cc(C(F)(F)F)n(C)c2=O)c1NC(=O)CCc1ccccc1 [2-86]
100: Pre-emerge Herbicidal Activity, phytotoxicity rating (0-100), AMARE ([1]; 63 g ai/ha) | Pre-emerge Herbicidal Activity, phytotoxicity rating (0-100), AMARE ([1]; 250 g ai/ha) | Pre-emerge Herbicidal Activity, phytotoxicity rating (0-100), ECHCG ([2]; 250 g ai/ha) | Pre-emerge Herbicidal Activity, phytotoxicity rating (0-100), SETVI ([3]; 63 g ai/ha) | Pre-emerge Herbicidal Activity, phytotoxicity rating (0-100), SETVI ([3]; 250 g ai/ha) | Pre-emerge Herbicidal Activity, phytotoxicity rating (0-100), IPOHE ([4]; 250 g ai/ha) | Pre-emerge Herbicidal Activity, phytotoxicity rating (0-100), SORHA ([5]; 250 g ai/ha) | Pre-emerge Herbicidal Activity, phytotoxicity rating (0-100), CHEAL ([6]; 63 g ai/ha) | Pre-emerge Herbicidal Activity, phytotoxicity rating (0-100), CHEAL ([6]; 250 g ai/ha) | Pre-emerge Herbicidal Activity, phytotoxicity rating (0-100), DIGSA ([7]; 63 g ai/ha) | Pre-emerge Herbicidal Activity, phytotoxicity rating (0-100), DIGSA ([7]; 250 g ai/ha) | Pre-emerge Herbicidal Activity, phytotoxicity rating (0-100), CASOB ([8]; 63 g ai/ha) | Pre-emerge Herbicidal Activity, phytotoxicity rating (0-100), ABUTH ([9]; 63 g ai/ha) | Pre-emerge Herbicidal Activity, phytotoxicity rating (0-100), ABUTH ([9]; 250 g ai/ha) | phytotoxicity rating ECHCG ([12]; 250 g ai/ha) | phytotoxicity rating SETVI ([13]; 250 g ai/ha) | phytotoxicity rating IPOHE ([14]; 63 g ai/ha) | phytotoxicity rating IPOHE ([14]; 250 g ai/ha) | phytotoxicity rating SORHA ([15]; 250 g ai/ha) | phytotoxicity rating CHEAL ([16]; 63 g ai/ha) | phytotoxicity rating CHEAL ([16]; 250 g ai/ha) | phytotoxicity rating AMARE ([18]; 63 g ai/ha) | phytotoxicity rating AMARE ([18]; 250 g ai/ha) | phytotoxicity rating CASOB ([19]; 63 g ai/ha) | phytotoxicity rating CASOB ([19]; 250 g ai/ha) | phytotoxicity rating ABUTH ([20]; 63 g ai/ha) | phytotoxicity rating ABUTH ([20]; 250 g ai/ha) | phytotoxicity rating CORN ([21]; 250 g ai/ha) | phytotoxicity rating RICE ([22]; 250 g ai/ha)
70: phytotoxicity rating SORHA ([15]; 63 g ai/ha)
99: Pre-emerge Herbicidal Activity, phytotoxicity rating (0-100), SORHA ([5]; 63 g ai/ha) | Pre-emerge phytotoxicity rating (0-100), crop damage, CORN ([10]; 250 g ai/ha) | Pre-emerge phytotoxicity rating (0-100), crop damage, RICE ([11]; 250 g ai/ha)
80: phytotoxicity rating RICE ([22]; 63 g ai/ha)
90: Pre-emerge Herbicidal Activity, phytotoxicity rating (0-100), IPOHE ([4]; 63 g ai/ha) | Pre-emerge phytotoxicity rating (0-100), crop damage, RICE ([11]; 63 g ai/ha) | phytotoxicity rating ECHCG ([12]; 63 g ai/ha) | phytotoxicity rating SETVI ([13]; 63 g ai/ha) | phytotoxicity rating CORN ([21]; 63 g ai/ha)
95: Pre-emerge Herbicidal Activity, phytotoxicity rating (0-100), ECHCG ([2]; 63 g ai/ha) | Pre-emerge Herbicidal Activity, phytotoxicity rating (0-100), CASOB ([8]; 250 g ai/ha) | Pre-emerge phytotoxicity rating (0-100), crop damage, CORN ([10]; 63 g ai/ha) | phytotoxicity rating DIGSA ([17]; 250 g ai/ha)
30: phytotoxicity rating DIGSA ([17]; 63 g ai/ha)

Cn1c(C(F)(F)F)cc(=O)n(-c2c(F)cc(Cl)c(OCC#N)c2NC(=O)CCc2ccccc2)c1=O [2-87]
40: Pre-emerge phytotoxicity rating (0-100), crop damage, RICE ([11]; 63 g ai/ha) | phytotoxicity rating SETVI ([13]; 250 g ai/ha) | phytotoxicity rating CASOB ([19]; 63 g ai/ha) | phytotoxicity rating RICE ([22]; 63 g ai/ha)
90: Pre-emerge Herbicidal Activity, phytotoxicity rating (0-100), ECHCG ([2]; 250 g ai/ha) | Pre-emerge Herbicidal Activity, phytotoxicity rating (0-100), SETVI ([3]; 63 g ai/ha) | Pre-emerge Herbicidal Activity, phytotoxicity rating (0-100), IPOHE ([4]; 63 g ai/ha) | Pre-emerge phytotoxicity rating (0-100), crop damage, RICE ([11]; 250 g ai/ha) | phytotoxicity rating CHEAL ([16]; 250 g ai/ha)
85: Pre-emerge Herbicidal Activity, phytotoxicity rating (0-100), SORHA ([5]; 250 g ai/ha)
80: Pre-emerge Herbicidal Activity, phytotoxicity rating (0-100), DIGSA ([7]; 63 g ai/ha) | phytotoxicity rating CHEAL ([16]; 63 g ai/ha) | phytotoxicity rating CORN ([21]; 250 g ai/ha)
50: Pre-emerge Herbicidal Activity, phytotoxicity rating (0-100), SORHA ([5]; 63 g ai/ha) | phytotoxicity rating ECHCG ([12]; 250 g ai/ha) | phytotoxicity rating SORHA ([15]; 250 g ai/ha) | phytotoxicity rating DIGSA ([17]; 250 g ai/ha)
30: phytotoxicity rating SETVI ([13]; 63 g ai/ha) | phytotoxicity rating CORN ([21]; 63 g ai/ha)
10: phytotoxicity rating ECHCG ([12]; 63 g ai/ha) | phytotoxicity rating SORHA ([15]; 63 g ai/ha) | phytotoxicity rating DIGSA ([17]; 63 g ai/ha)
100: Pre-emerge Herbicidal Activity, phytotoxicity rating (0-100), AMARE ([1]; 63 g ai/ha) | Pre-emerge Herbicidal Activity, phytotoxicity rating (0-100), AMARE ([1]; 250 g ai/ha) | Pre-emerge Herbicidal Activity, phytotoxicity rating (0-100), SETVI ([3]; 250 g ai/ha) | Pre-emerge Herbicidal Activity, phytotoxicity rating (0-100), IPOHE ([4]; 250 g ai/ha) | Pre-emerge Herbicidal Activity, phytotoxicity rating (0-100), CHEAL ([6]; 63 g ai/ha) | Pre-emerge Herbicidal Activity, phytotoxicity rating (0-100), CHEAL ([6]; 250 g ai/ha) | Pre-emerge Herbicidal Activity, phytotoxicity rating (0-100), DIGSA ([7]; 250 g ai/ha) | Pre-emerge Herbicidal Activity, phytotoxicity rating (0-100), CASOB ([8]; 63 g ai/ha) | Pre-emerge Herbicidal Activity, phytotoxicity rating (0-100), CASOB ([8]; 250 g ai/ha) | Pre-emerge Herbicidal Activity, phytotoxicity rating (0-100), ABUTH ([9]; 63 g ai/ha) | Pre-emerge Herbicidal Activity, phytotoxicity rating (0-100), ABUTH ([9]; 250 g ai/ha) | phytotoxicity rating IPOHE ([14]; 63 g ai/ha) | phytotoxicity rating IPOHE ([14]; 250 g ai/ha) | phytotoxicity rating AMARE ([18]; 63 g ai/ha) | phytotoxicity rating AMARE ([18]; 250 g ai/ha) | phytotoxicity rating CASOB ([19]; 250 g ai/ha) | phytotoxicity rating ABUTH ([20]; 63 g ai/ha) | phytotoxicity rating ABUTH ([20]; 250 g ai/ha)
75: Pre-emerge phytotoxicity rating (0-100), crop damage, CORN ([10]; 250 g ai/ha) | phytotoxicity rating RICE ([22]; 250 g ai/ha)
5: Pre-emerge phytotoxicity rating (0-100), crop damage, CORN ([10]; 63 g ai/ha)
60: Pre-emerge Herbicidal Activity, phytotoxicity rating (0-100), ECHCG ([2]; 63 g ai/ha)

— US6355799B1, “Substituted benzene compounds, process for their preparation, and herbicidal and defoliant compositions containing them” (ISK Americas Incorporated, priority 1997, dated 2002)
